Here are results for 2 compounds from US20100069502A1, “Assay” (priority 2006, published 2010).

Holding throughout (type): cell-based
The test system of test [1] is PP1. Nature of the test: PP1 phosphorylase phosphatase activity in HEK293 cell lysates. The settings on record: 10 mM phenformin, 32P-labelled phosphorylase a, 4 mM okadaic acid. How it is done:
(§1) A Levels of phosphorylation of AMPK at Thr172 in 4 untreated and 4 treated samples. Anti-PP5 TPR domain antibody is used as a loading control. Molecular weights (kDa) are indicated to the left of the panels. B PP1 phosphorylase phosphatase activity in treated and untreated HEK293 cell lysates using phosphorylase a as substrate, in the presence of 4 nM okadaic acid. Data are mean±SEM for four samples measured in triplicate. C PP2A phosphorylase phosphatase activity in treated and untreated HEK293 cell lysates using phosphorylase a as substrate, in the presence of 200 nM I-2. Data are mean±SEM for four samples measured in triplicate. […]
The activity of PP1 in response to phenformin was assessed using ^32P-labelled phosphorylase a as substrate with […] okadaic acid included in the reaction in order to inhibit the activity of PP2A and EGTA (0.1-2 mM) to inhibit metal ion activated protein phosphatases. No change in PP1 phosphorylase phosphatase activity could be detected between unstimulated and 10 mM-phenformin stimulated cell lysates (FIG. 1B).

Test [2] deals with PP2A. In words: PP2A phosphorylase phosphatase activity in HEK293 cell lysates. The settings on record: 10 mM phenformin, 32P labelled phosphorylase a, 200 nM I-2. How it is done:
as §1
The activity of PP2A in response to phenformin was also assessed using ^32P labelled phosphorylase a as substrate, but for this assay 200 nM I-2 and EGTA (0.1-2 mM) to inhibit metal ion activated protein phosphatases was included to inhibit PP1. No change in the PP2A phosphorylase phosphatase activity could be detected between unstimulated and 10 mM-phenformin stimulated cell lysates (FIG. 1C).

The test system of test [3] is PP5. Nature of the test: PP5 levels by immunoblotting in HEK293 cell lysates. The settings on record: HEK293 cells, 10 mM phenformin, antibody against TPR domains. As for the experimental part: (§2) To study the effects of biguanide on the activity of protein phosphatases, HEK293 cell lysates either untreated or treated with biguanide (10 mM phenformin in this example—as described above) were either immunoblotted or assayed for specific protein phosphatase activity by using combinations of phosphatase inhibitors and activators, as well as different phosphorylated substrates.
Since the activity of PP5 in HEK293 cells is low, the levels of PP5 were assessed by immunoblotting using an antibody against the TPR domains of the protein.

The target of test [4] is T1, PPM1F (Homo sapiens, UniProt P49593).
T1 construct: endogenous in cells; host or cells: HEK293
T1 sequence (P49593 1-454): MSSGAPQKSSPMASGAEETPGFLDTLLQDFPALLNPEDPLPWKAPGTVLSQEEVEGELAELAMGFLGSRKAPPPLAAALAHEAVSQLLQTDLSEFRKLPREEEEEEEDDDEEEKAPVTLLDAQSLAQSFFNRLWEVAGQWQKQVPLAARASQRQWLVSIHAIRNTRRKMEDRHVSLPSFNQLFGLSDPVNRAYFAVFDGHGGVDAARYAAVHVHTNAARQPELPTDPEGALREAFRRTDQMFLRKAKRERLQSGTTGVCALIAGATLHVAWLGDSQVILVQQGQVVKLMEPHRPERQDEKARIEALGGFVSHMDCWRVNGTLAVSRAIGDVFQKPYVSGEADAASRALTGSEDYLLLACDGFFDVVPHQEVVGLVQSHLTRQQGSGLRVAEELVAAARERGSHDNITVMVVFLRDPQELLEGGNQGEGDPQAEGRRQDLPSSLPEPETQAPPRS
In words: Activity of PPM phosphatase immunoprecipitated from HEK293 cell lysates, casein substrate. As for the experimental part: PPM1F is immunopelleted with antibodies raised the amino acid sequence […] and the phosphatase activity in the immunopellet is measured in a protein phosphatase assay using 32P-labelled casein as substrate in the presence of 10 mM Mg2+ or Mn2+ ions and 5 μM okadaic acid.
(§3) PPM phosphatase activity in HEK293 cell lysates either untreated or treated with 10 mM phenformin for 1 hour. Individual isoforms were immunoprecipitated from control or phenformin-treated cell lysates and activity measured using ^32P labelled casein as substrate in the presence of 10 mM MgAc and […] acid. Data are mean activities for assays performed in triplicate.
To determine with greater certainty which PPM phosphatases are affected by biguanide, the PPM phosphatase activity associated with each of the PPM enzymes was assessed. In this example, the biguanides are metformin and phenformin. […] No change could be detected in the PPM phosphatases associated with PPM1A1, PPM1B1, PPM1B2, PPM1D, PPM1G, ILKAP, Nerpp, PDPC1 or PDPC2. […] Following immunoprecipitation and immunoblotting of the PPM1E immunoprecipitate from untreated HEK293 cells, no signal could be detected using an antibody directed against PPM1E.

For test [5], the system named is PPM phosphatase. In words: Mg2+ dependent, okadaic acid resistant casein phosphatase (PPM phosphatase) activity in HEK293 cell lysates. The following applies: HEK293 cells, 2 mM metformin. As for the experimental part: (§4) A PPM phosphatase activity in treated and untreated HEK293 cell lysates using casein as substrate in the presence of 10 mM MgAc and 5 μM okadaic acid. Data are mean±SEM with five independent samples measured in duplicate. (p<0.001). B PPM phosphatase activity in treated and untreated HeLa cell lysates using casein as substrate in the presence of 10 mM MgAc and 5 μM okadaic acid. Data are mean±SEM with four independent samples measured in duplicate. (p<0.001).
as §2
(§5) The activity of PP2C (PPM1) and related members of the PPM family was assessed using ^32P-labelled casein as substrate with 5 μM okadaic acid included in the reaction to inhibit PP2A, and 10 mM magnesium acetate, which is known to be required for the activity of PP2C (Ingebritsen and Cohen, 1983 Science vol 221, pp 331-338; Ingebritsen et al., 1983 Eur J Biochem vol 132, pp 263-274).

Test [6] concerns the target T2, PPM1E (Homo sapiens, UniProt Q8WY54).
T2 construct: The PPM1A1 and PPM1E isoforms were immunoprecipitated in triplicate from untreated or metformin-treated HEK293 cell lysates; endogenous in cells; host or cells: HEK293
T2 sequence (Q8WY54 1-755): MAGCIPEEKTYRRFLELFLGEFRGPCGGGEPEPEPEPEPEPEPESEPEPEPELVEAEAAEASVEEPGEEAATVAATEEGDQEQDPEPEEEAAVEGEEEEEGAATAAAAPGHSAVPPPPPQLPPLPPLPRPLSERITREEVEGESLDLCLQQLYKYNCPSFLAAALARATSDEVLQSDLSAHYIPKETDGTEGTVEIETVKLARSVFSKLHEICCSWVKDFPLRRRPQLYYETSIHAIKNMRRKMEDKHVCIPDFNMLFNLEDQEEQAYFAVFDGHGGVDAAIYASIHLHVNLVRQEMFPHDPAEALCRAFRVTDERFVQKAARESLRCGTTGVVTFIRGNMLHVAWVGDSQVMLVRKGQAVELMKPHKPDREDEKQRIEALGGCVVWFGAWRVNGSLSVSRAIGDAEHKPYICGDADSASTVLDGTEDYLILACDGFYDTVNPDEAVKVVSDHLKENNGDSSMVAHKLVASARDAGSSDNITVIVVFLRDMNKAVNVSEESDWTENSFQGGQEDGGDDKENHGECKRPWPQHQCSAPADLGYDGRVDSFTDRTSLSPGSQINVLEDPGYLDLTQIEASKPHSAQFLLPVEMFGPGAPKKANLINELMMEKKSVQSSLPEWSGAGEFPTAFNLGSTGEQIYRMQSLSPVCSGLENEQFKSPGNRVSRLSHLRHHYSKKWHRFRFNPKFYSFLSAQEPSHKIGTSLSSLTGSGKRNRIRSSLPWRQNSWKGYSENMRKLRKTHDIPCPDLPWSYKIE
In words: Activity of PPM phosphatase immunoprecipitated from HEK293 cell lysates, casein substrate. The following applies: HEK293 cells, 2 mM metformin for 10 minutes prior to lysis. How it is done: PPM1E is immunopelleted with antibodies raised the amino acid sequence […] and the phosphatase activity in the immunopellet is measured in a protein phosphatase assay using 32P-labelled casein as substrate in the presence of 10 mM Mg2+ or Mn2+ ions and 5 μM okadaic acid.
as §3
To determine with greater certainty which PPM phosphatases are affected by biguanide, the PPM phosphatase activity associated with each of the PPM enzymes was assessed. […] No change could be detected in the PPM phosphatases associated with PPM1A1, PPM1B1, PPM1B2, PPM1D, PPM1G, ILKAP, Nerpp, PDPC1 or PDPC2. […] Following immunoprecipitation and immunoblotting of the PPM1E immunoprecipitate from untreated HEK293 cells, no signal could be detected using an antibody directed against PPM1E.
HEK293 cells were treated with 2 mM metformin for 10 minutes prior to lysis. […] Control immunoprecipitations were preformed in triplicate for each lysate using pre-immune antibody and subtracted from the activity calculated for the PPM phosphatase immunoprecipitations. […]

For test [7], the system named is PPM phosphatase. Nature of the test: Mg2+ dependent, okadaic acid resistant casein phosphatase (PPM phosphatase) activity in HeLa cell lysates. The settings on record: HeLa cells, 2 mM metformin. As for the experimental part:
as §4, §5
To test whether phenformin is able to have similar effects in this cell line, PPM phosphatase activity in HeLa cells either untreated or treated with 10 mM phenformin was assessed. Again, a ˜20% decrease in PPM phosphatase activity could be observed in cells treated with phenformin (FIG. 2B). In this experiment, the activity of many PP2C isoforms is measured, and the 20% decrease observed may represent a more severe decrease in activity of only one such isoform.

In the case of `[H]/N=C(/N)N/C(=N/[H])NCCc1ccccc1` [phenformin, phenylethylbiguanide], the “PP1 phosphorylase phosphatase activity” value in test [1] is listed as “no effect”. For the same compound, the “PP2A phosphorylase phosphatase activity” value in test [2] is “no effect”. The “levels of PP5” value in test [3] is listed as “no effect”. In test [4] (HEK293 cells treated with phenformin), the “activity of immunoprecipitated PPM1F, % of the levels of untreated cells” value is roughly 60%. The “decrease in activity of immunoprecipitated PPM1F” value in test [4] (HEK293 cells, 10 mM phenformin) was roughly 40%.
Turning to `CN(C)C(=N)N=C(N)N` [metformin, 1-(diaminomethylidene)-3,3-dimethyl-guanidine], the “decrease in PPM phosphatase activity” value in test [5] and in test [7] was 20% each time. The “activity of immunoprecipitated PPM1E” value in test [6] was “almost completely ablated”; in test [6] (listed as Metformin) it was “Substantial specific knockdown”.
